Read-outs that look alike come from different tables or passages of the source.
Assays:
[1] = cited from earlier work
[2] = cited from earlier work; remark: listed apart in the source
[3] = Extraction of lipophilic acids into fluorous membranes, 1H NMR; format: physicochemical; conditions: aqueous buffered solutions of 10^−3.5 M acid; 1H NMR of membrane
[4] = Solubility in perfluoro(tributylamine)
[5] = cited from earlier work; remark: listed apart in the source
[6] = assuming 1:1 stoichiometry; cited from earlier work
[7] = assuming 1:1 stoichiometry; cited from earlier work; remark: listed apart in the source
[8] = PFPHP saturated with substance, salts judged by resistance of soaked porous PTFE membranes

**Q.** With CCCCCCCCCCCC[N+](C)(CCCCCCCCCCCC)CCCCCCCCCCCC.[Cl-] [tridodecylmethylammonium chloride] as the molecule, how does the “solubility in PFPHP” value (physchem) read?
**A.** Its value is “not soluble enough”.

**Q.** Which “log Kip” value ([1]; in cyclohexane) does the source give for “tetrakis-(decyl)ammonium tetraphenylborate” here?
**A.** Its value is 14.2.

**Q.** With CCCCCCCCCCCCCCCCCCOC(=O)c1ccncc1 [Hydrogen Ionophre IV] as the molecule, how does the “solubility in PFPHP” value (physchem) read?
**A.** The value was “poorly soluble”.

**Q.** Which “solubility in PFPHP” value (physchem) does the source give for FC(F)(F)c1cc([B-](c2cc(C(F)(F)F)cc(C(F)(F)F)c2)(c2cc(C(F)(F)F)cc(C(F)(F)F)c2)c2cc(C(F)(F)F)cc(C(F)(F)F)c2)cc(C(F)(F)F)c1.[Na+] here?
**A.** The value was “not soluble enough”.

**Q.** With c1ccc(CSCc2ccccc2)cc1 [dibenzyl sulfide] as the molecule, how does the “solubility in PFPHP” value (physchem) read?
**A.** The value was “poorly soluble”.

**Q.** For CCCCC(CCCC)OC(=O)CCCCCCCCCCOC(=O)Cc1ccc(N=c2cc3oc4cc(N(C)C)ccc4nc-3c3ccccc23)cc1 [Chromoionophroes II], which “solubility in PFPHP” value (physchem) is on record?
**A.** Its value is “poorly soluble”.

**Q.** For FC(F)(F)C(F)(F)C(F)(F)C(F)(F)C(F)(F)C(F)(F)c1cc([B-](c2cc(C(F)(F)C(F)(F)C(F)(F)C(F)(F)C(F)(F)C(F)(F)F)cc(C(F)(F)C(F)(F)C(F)(F)C(F)(F)C(F)(F)C(F)(F)F)c2)(c2cc(C(F)(F)C(F)(F)C(F)(F)C(F)(F)C(F)(F)C(F)(F)F)cc(C(F)(F)C(F)(F)C(F)(F)C(F)(F)C(F)(F)C(F)(F)F)c2)c2cc(C(F)(F)C(F)(F)C(F)(F)C(F)(F)C(F)(F)C(F)(F)F)cc(C(F)(F)C(F)(F)C(F)(F)C(F)(F)C(F)(F)C(F)(F)F)c2)cc(C(F)(F)C(F)(F)C(F)(F)C(F)(F)C(F)(F)C(F)(F)F)c1.[Na+] [compound 2], which solubility (physchem; organic solvent or mixture) is on record?
**A.** The solubility was 1400 µM.

**Q.** With CCCCCCCCCCCC[N+](CCCCCCCCCCCC)(CCCCCCCCCCCC)CCCCCCCCCCCC.Clc1ccc([B-](c2ccc(Cl)cc2)(c2ccc(Cl)cc2)c2ccc(Cl)cc2)cc1 [ETH 500, tetradecylammonim tetrakis[p-chlorophenyl]borate] as the molecule, how does the “solubility in PFPHP” value (physchem; [8]) read?
**A.** The value was “not sufficiently soluble”.

**Q.** For FC(F)(F)C(F)(F)C(F)(F)C(F)(F)C(F)(F)N(C(F)(F)C(F)(F)C(F)(F)C(F)(F)C(F)(F)F)C(F)(F)C(F)(F)C(F)(F)C(F)(F)C(F)(F)F [perfluorotripentylamine], which “formal pKa” value [2] is on record?
**A.** The value was “smaller than −0.5”.

**Q.** And the “association with any ion tested” value ([2]; inorganic monocations)?
**A.** Its value is “does not undergo measurable association”.

**Q.** With CCCCCCCCCCCCN(CCCCCCCCCCCC)CCCCCCCCCCCC [tridodecylamine] as the molecule, how does the “solubility in PFPHP” value (physchem) read?
**A.** Its value is “poorly soluble”.

**Q.** With CCCC[N+](CCCC)(CCCC)CCCC.F[B-](F)(F)F [tetrabutyl-ammonium tetrafluoroborate] as the molecule, how does the “log Kip” value ([1]; in α,α,α-trifluorotoluene) read?
**A.** Its value is 5.4.

**Q.** Which “solubility in PFPHP” value (physchem) does the source give for CCCCCCCCC(CCCCCCCC)CN=c1cc2oc3cc(N(CC)CC)ccc3nc-2c2ccccc12 [Chromoionophroes III] here?
**A.** Its value is “poorly soluble”.

**Q.** For CCCCCCCC(=O)O [octanoic acid], which “extraction into fluorous membranes” value [3] is on record?
**A.** Its value is “not extracted to any significant amount”.

**Q.** What does the source list for CC(C)[C@@H]1NC(=O)[C@H](C)OC(=O)[C@@H](C(C)C)NC(=O)[C@@H](C(C)C)OC(=O)[C@H](C(C)C)NC(=O)[C@H](C)OC(=O)[C@@H](C(C)C)NC(=O)[C@@H](C(C)C)OC(=O)[C@H](C(C)C)NC(=O)[C@H](C)OC(=O)[C@@H](C(C)C)NC(=O)[C@@H](C(C)C)OC1=O [valinomycin]?
**A.** solubility in perfluoro(tributylamine) [4]: poorly soluble; log K^potK,Na ([5]; after exposure to an extract of urine): −3.1; log K^potK,Na ([5]; before exposure to an extract of urine): −3.9; solubility in PFPHP (physchem; [8]): poorly soluble

**Q.** With CCCCCCCC[N+](CCCCCCCC)(CCCCCCCC)CCCCCCCC.[Cl-] [tetraoctylammonium chloride] as the molecule, how does the “log Kip” value ([1]; in 98.2 toluene-nitrobenzene) read?
**A.** Its value is 14.9.

**Q.** Which results are given for FC(OC(F)(F)C(F)(OC(F)(F)C(F)(OC(F)(F)C(F)(OC(F)(F)C(F)(F)C(F)(F)F)C(F)(F)F)C(F)(F)F)C(F)(F)F)C(F)(F)F (centres unmarked) [2H-perfluoro-5,8,11-trimethyl-3,6,9,12-tetraoxapentadecane]?
**A.** formal association constant with Li^+ [6]: 1.5 M⁻¹; formal association constant with Na^+ [7]: 2.3 M⁻¹

**Q.** With OC(c1cccc(C(O)(C(F)(F)F)C(F)(F)F)c1)(C(F)(F)F)C(F)(F)F as the molecule, how does the “solubility in perfluoro(tributylamine)” value [4] read?
**A.** Its value is “poorly soluble”.

**Q.** What about the “solubility in PFPHP” value (physchem; [8]) of the same molecule?
**A.** The value was “poorly soluble”.

**Q.** With C[C@H](CCC(=O)O)[C@H]1CC[C@H]2[C@@H]3[C@H](O)C[C@@H]4C[C@H](O)CC[C@]4(C)[C@H]3C[C@H](O)[C@]12C [cholic acid] as the molecule, how does the “extraction into fluorous membranes” value [3] read?
**A.** The value was “not extracted to any significant amount”.

**Q.** With S=C(NCc1cccc(CNC(=S)Nc2ccccc2)c1)Nc1ccccc1 as the molecule, how does the “solubility in PFPHP” value (physchem) read?
**A.** The value was “poorly soluble”.

**Q.** For CCCCCCCCCCCCCCCCCC(=O)N=c1cc2oc3cc(N(CC)CC)ccc3nc-2c2ccccc12 [Chromoionophroes I], which “solubility in PFPHP” value (physchem) is on record?
**A.** Its value is “poorly soluble”.

— patent US8765060B2, “Chemical sensor” (Regents of the University of Minnesota, priority 2005, dated 2014)
